The text below walks through data of PMC9041133 (RSC Advances, 2021).

Data set [1] is described as follows: Pharmacokinetic study in healthy volunteers after oral fixed-combination tablet, plasma measured by USA-DMSPE-HPLC-UV. Format: in vivo. Conditions: human; for half-life: read-out: T ½ (converted). Here is the method:
First of all, some frozen human plasma samples were allowed to be thawed at room temperature (23 ± 0.5 °C) and afterwards they were placed into centrifuge tubes. Acetonitrile was applied as a deproteinizing agent to precipitate all proteins existing in plasma. In this regard, 1.9 mL of plasma was spiked with 100.0 μL of working standard solutions to get the suitable concentration level of DIC and FEB, then, to all tubes, 2.0 mL acetonitrile was added. All the biological samples were vortexed for 3 min for complete mixing and followed with centrifugation at 5000 rpm for 4 min. For evaporating the acetonitrile content of each real sample, the tube containing the spiked sample was placed under a stream of nitrogen. To adjust the pH of media, 4.0 mL buffer solution at pH 5.0 was added to real sample. Eventually, 5.0 mL of the resultant spiked sample was subjected to the extraction and measurement protocols for further evaluations.
5.0 mL of the prepared spiked human plasma was placed into a centrifuge tube and then 20.0 mg of synthesized hybrid sorbent was added to the tube. For ensuring the complete dispersion of the supermagnetic hybrid sorbent into the solution, ultrasonic irradiation was utilized for 6 min. As the sorbent is dispersed through the sample, the target drugs are adsorbed on the surface of it. Subsequently, an external magnetic field composed of neodymium (Nd), iron (Fe) and boron (B) (0.8 tesla) was applied to separate the hybrid sorbent from media and the free drug sample was removed by a pipette. In order to desorb the target drugs from the extractor, it was washed with 1.5 mL with acetonitrile in three steps (0.5 mL in each step) while ultrasonic irradiation was applied for 3 min. Nd-Fe-B-Nd magnet was used again in this step and then the solution was separated and dried under a stream of nitrogen. After collecting the remaining material, which contains DIC and FEB, was dissolved in 50.0 μL of the mobile phase of HPLC and 20.0 μL of it was injected into the separation column and further measurements were carried out.
The volunteer's blood were collected after 0 to 4 and 8, 12 and 24 h of taking the drug and the samples were transferred to the polypropylene tubes containing ethylenediaminetetraacetic acid and centrifuged to achieve the required human plasma, after that the samples were kept at −18 °C. […] The samples were analyzed by means of the current method and the average concentration of each drug versus time was drawn. In this assessment, some major pharmacokinetic features including Tmax, Cmax, AUC0–t, AUC0–∞, and T½ were calculated and the results were summarized in Table 3.

Details of data set [2]: method as in doi:10.1016/j.microc.2019.03.022, PMID 28953473. As to conditions: reported values; cited from earlier work.

A word on the Tmax: it is the time at which the peak concentration occurs. With `O=C(O)Cc1ccccc1Nc1c(Cl)cccc1Cl` [Diclofenac, 2-(2,6-dichloranilino)phenylacetic acid], in data set [1], the Tmax stood at 2.88 ± 0.3 h and the half-life is 5.1 ± 1.1 h.
The term pKa denotes the pH at which an ionisable group is half protonated. As to `Cc1nc(-c2ccc(OCC(C)C)c(C#N)c2)sc1C(=O)O` [Febuxostat, 2-(3-cyano-4-isobutoxyphenyl)-4-methyl-1,3-thiazole-5-carboxylic acid], in data set [2], the pKa is 3.3. In data set [1], the Tmax was determined as 3.15 ± 0.27 h and the half-life was 6.3 ± 1.5 h.
